# According to US9802064B2, “Microcapsule comprising glycoprotein derived from plants” (AMOREPACIFIC CORPORATION, priority 2012, dated 2017):
# Assay: DPPH assay of anti-oxidative (radical scavenging) activity
# Type: biochemical
# Details: 100 μM DPPH, 37° C., 30 minutes, absorbance 517 nm; FIG. 7
# Description: To evaluate anti-oxidative activity, DPPH (1,1-diphenyl-2-picrylhydrazyl) assay was carried out. The samples used in this test (Doore Co., Ltd.) are as follows.
# DPPH assay is a test in which an oxidant called DPPH is used to initiate oxidation and the ability of a sample to be tested in removing radicals is determined. When DPPH meets a material having anti-oxidative activity, it […] electrons to cause radical removing and undergoes a change in color from purple to yellow. Thus, it is possible to observe the oxidative activity of a material easily with the naked eye.
# Each sample was introduced to a 96-well plate in an amount of 10 μl, and 100 μM of DPPH was introduced thereto in an amount of 190 μl. After carrying out reaction at 37° C. for 30 minutes, the absorbance was measured at 517 nm. Vitamin C was used as positive control (10, 5, 2.5 μg/ml).
substance,measurement,value
sodium caseinate [ISAI-022],anti-oxidative activity (DPPH radical scavenging),no radical scavenging activity
